{
  "source": "patent US10004761B2",
  "about": "“Malodor neutralizing composition” (priority 2016, dated 2018)",
  "key": {"[1]": {"assay": "Solubility of NAC crystals in water", "assay_type": "physicochemical", "experimental": "The solubility of NAC crystals in water was measured for different NAC concentrations, at different temperatures."}, "[2]": {"system": "hyaluronidase Type IV-S, from bovine testes (Hyase)", "assay": "HA gelation consistency (Method III) in the presence of Hyase", "assay_type": "biochemical", "settings": "for Consistency after 24 h incubation at 37° C.: HA 1% 2 mL", "experimental": "Method III (Viscosity of HA): HA at low concentrations (e.g., 1%) in aqueous solution forms a viscous colloidal hydrogel solution, which yields semi-solid gel particles at room temperature and a solid gel at 4° C.\nHA degradation was evaluated using Method III, as described hereinabove.\nHA state of gelation was studied in the presence of NAC and various HA-degrading enzymes, using the following Stock solutions:\nThe tested enzyme (50 μL) was placed in a tube, NAC (50 μL of the Stock solution, final concentration of about 3.3%) was added and the mixture was incubated for 2 hours at room temperature (23° C.). Then, 2 ml of HA 1% were added to each tube and tubes were further incubated at room temperature for additional 24 hours.\nIn a second set of experiments, NAC (50 μL of the Stock solution) was added to a tube containing 2 ml of HA 1%; and the tubes were incubated for 2 hours at room temperature. Then, the HA-degrading enzyme was added and tubes were incubated at room temperature for additional 24 hours. In control tubes 9 and 10 (containing only HA), 50 μL of water were added to achieve the same volume as the other tested tubes.\nIn another set of experiments, the effect of NAC powder, (at a final concentration of 20%), on HA gelation in the presence of Hyase or Chondroitinase ABC was tested. HA (2 ml of 1%), and the tested enzyme were incubated with and without 400 mg of NAC powder, at 4° C. and at 37° C.\nHA gelation in the presence of various concentrations of NAC and/or various concentrations of Hyase was further studies. […] The solutions were maintained for 24 hours at room temperature, and thereafter Hyase, at various concentrations, was added. Then the mixtures were incubated at room temperature. The enzyme was absent in the control tubes.\nIn another set of experiments, the effect of various NAC concentrations on gelation of HA 1% (2 mL in each tube) in the presence of Hyase (50 μL of Stock solution) following incubation at 37° C., was tested, using the same procedure as described hereinabove."}, "[3]": {"system": "hyaluronidase Type IV-S, from bovine testes (Hyase)", "assay": "Dische's assay (Method II) of HA degradation by Hyase with inhibitors", "assay_type": "biochemical", "experimental": "Method II (Dische's assay; detection of uronic acid residues): Assays were performed by following the procedures described in Dische Z. [J. Biol. Chem., 1947, 167, p. 189-198] and Dische and Rothschild [Anal Biochem., 1967, 21(1), p. 125-30]. In these assays, molecules containing the uronic acid residues found in the precipitate formed upon CPC additions, are re-solubilized and products formed by -sulfuric acid hydrolysis of these fragments are detected by a spectrophotometric assay employing carbazole chromagen reagent. In addition, small residues degraded off the HA chains that have not precipitated with the addition of CPC, can be detected by the carbazole assay performed on the solution, so as to detect all of the uronic acid content.\nEvaluation of HA degradation by this method was generally performed as follows:\n20 μL of a NAC stock solution, and 20 μL of the stock solutions of the other inhibitors were used in the assay.\n200 μL of the HA stock solution were placed in each tube, for achieving a 1 mg HA per tube.\nTwenty (20) μL of hyase and 20 μL of NAC were combined and incubated for 2 hours. Then 200 μL of HA (1 mg) were added to each tube and the mixture was incubated at room temperature for 24 hours. Thereafter, the tubes were heated for 2 minutes in boiling water bath and 8 mL of doubled distilled water were added to the tubes as preparation for the Dische's assay.\nAs per Dische's Assay, 100 μL of 3N NaCl and 0.5 mL of 10% CPC (cetylpyridinium chloride) were thereafter added to each tube and the mixture was incubated at 37° C. until flocculation-turbidity (resulting from precipitation of HA+CPC) could be observed. The mixture was centrifuged for 10 minutes at 10,000 g at room temperature, and the supernatant was thereafter separated from the obtained pellet.\nThe pellet was dissolved in 1 ml of CaCl2, and the obtained solution was incubated at 37° C. until complete dissolution of the pellet is obtained. A 2:1 v/v ethanol/ether mixture (8 ml) was thereafter added, and the mixture was intensively stirred (by vortex) and kept at −20° C. overnight. The obtained pellet was collected following a centrifugation for 10 minutes at 10,000 g. Then, distilled water (1 mL) was added to solubilize the pellet, followed by addition of 0.2 ml Carbazole 1%. The mixture was stirred thoroughly, and concentrated sulfuric acid (6 mL) was thereafter added.\nThe samples were transferred into tight closed tubes, placed for 10 minutes in a boiling water bath, and was thereafter cooled in ice until it reached room temperature.\nThe pink-violet color developed by the chromogen was measured using a spectrophotometer at 527 nm.\nDitch assay, as described hereinabove (Method II) was performed while using the following Hyase inhibitors:\nThe experiment was run at room temperature (23° C.). Hyase and Inhibitors were incubated first for 2 hours prior to the addition of HA. Blank tubes included no substrate (HA) and Control tubes included no enzyme, no inhibitor and HA (200 μL). Tubes 5 and 6 contained HA and Hyase with no inhibitor. Standard Solutions with no enzyme and no inhibitor and HA 50 μL and 10 μL were also tested, for calibration. % HA cleaved denotes the weight percent of HA that was degraded. % HA residue denotes the weight percent of non-degraded HA, and represents the % of Hyase inhibition."}},
  "data": [
    {"smiles": "CC(=O)N[C@@H](CS)C(=O)O", "note": "[NAC, N-acetyl L-cysteine]", "values": [
      {"measurement": "Clearance (solubility of NAC crystals in water)", "setting": "[1]; NAC concentration 10%, at 4° C. (storage)", "value": "Clear"},
      {"measurement": "Clearance (solubility of NAC crystals in water)", "setting": "[1]; NAC concentration 10%, at 23° C., room temperature", "value": "Clear"},
      {"measurement": "Clearance (solubility of NAC crystals in water)", "setting": "[1]; NAC concentration 10%, at 34-37° C., skin and body temperature", "value": "Clear"},
      {"measurement": "Clearance (solubility of NAC crystals in water)", "setting": "[1]; NAC concentration 12%, at 4° C. (storage)", "value": "Clear"},
      {"measurement": "Clearance (solubility of NAC crystals in water)", "setting": "[1]; NAC concentration 12%, at 23° C., room temperature", "value": "Clear"},
      {"measurement": "Clearance (solubility of NAC crystals in water)", "setting": "[1]; NAC concentration 12%, at 34-37° C., skin and body temperature", "value": "Clear"},
      {"measurement": "Clearance (solubility of NAC crystals in water)", "setting": "[1]; NAC concentration 14%, at 4° C. (storage)", "value": "Clear"},
      {"measurement": "Clearance (solubility of NAC crystals in water)", "setting": "[1]; NAC concentration 14%, at 23° C., room temperature", "value": "Clear"},
      {"measurement": "Clearance (solubility of NAC crystals in water)", "setting": "[1]; NAC concentration 14%, at 34-37° C., skin and body temperature", "value": "Clear"},
      {"measurement": "Clearance (solubility of NAC crystals in water)", "setting": "[1]; NAC concentration 16%, at 4° C. (storage), cell wraps: Minimal crystals appearance", "value": "Minimal crystals"},
      {"measurement": "Clearance (solubility of NAC crystals in water)", "setting": "[1]; NAC concentration 16%, at 23° C., room temperature", "value": "Clear"},
      {"measurement": "Clearance (solubility of NAC crystals in water)", "setting": "[1]; NAC concentration 16%, at 34-37° C., skin and body temperature", "value": "Clear"},
      {"measurement": "Clearance (solubility of NAC crystals in water)", "setting": "[1]; NAC concentration 18%, at 4° C. (storage)", "value": "More crystals"},
      {"measurement": "Clearance (solubility of NAC crystals in water)", "setting": "[1]; NAC concentration 18%, at 23° C., room temperature, cell wraps: Minimal crystals appearance", "value": "Minimal"},
      {"measurement": "Clearance (solubility of NAC crystals in water)", "setting": "[1]; NAC concentration 18%, at 34-37° C., skin and body temperature", "value": "Clear"},
      {"measurement": "Clearance (solubility of NAC crystals in water)", "setting": "[1]; NAC concentration 20%, at 4° C. (storage)", "value": "More crystals"},
      {"measurement": "Clearance (solubility of NAC crystals in water)", "setting": "[1]; NAC concentration 20%, at 23° C., room temperature", "value": "More crystals"},
      {"measurement": "Clearance (solubility of NAC crystals in water)", "setting": "[1]; NAC concentration 20%, at 34-37° C., skin and body temperature", "value": "Clear"},
      {"measurement": "NAC concentration completely soluble in water", "setting": "[1]; at 23° C. and at lower temperatures", "value": "≤ 15", "unit": "%"},
      {"measurement": "concentration at which NAC solubilization reaches saturation", "setting": "[1]; at room temperature, presumed from crystals in the HA gel tubes", "value": 20, "unit": "%"},
      {"measurement": "NAC concentration completely soluble in water", "setting": "[1]; from 34° C. and up", "value": "≥ 20", "unit": "%"},
      {"measurement": "NAC concentration that fails to inhibit HA degradation", "setting": "[2]; HA 1%, Hyase 50 μL, 37° C. 24 h", "value": "lower than 1%"},
      {"measurement": "NAC concentration range with the best effect", "setting": "[2]; HA 1%, Hyase 50 μL, at 37° C.", "value": "4-16%"},
      {"measurement": "Consistency after 24 h incubation at 37° C.", "setting": "[2]; NAC 0.25% (5 mg), Hyase 50 μL", "value": "Fluid liquid (for a fluid liquid were in the range of 1-500 mPa S)"},
      {"measurement": "Consistency after 24 h incubation at 37° C.", "setting": "[2]; NAC 0.5% (10 mg), Hyase 50 μL", "value": "Fluid liquid (for a fluid liquid were in the range of 1-500 mPa S)"},
      {"measurement": "Consistency after 24 h incubation at 37° C.", "setting": "[2]; NAC 1.0% (20 mg), Hyase 50 μL", "value": "Viscous liquid (for a viscous liquid in the range of 1-10 Pa S)"},
      {"measurement": "Consistency after 24 h incubation at 37° C.", "setting": "[2]; NAC 2.0% (40 mg), Hyase 50 μL", "value": "Viscous liquid (for a viscous liquid in the range of 1-10 Pa S)"},
      {"measurement": "Consistency after 24 h incubation at 37° C.", "setting": "[2]; NAC 4.0% (80 mg), Hyase 50 μL", "value": "Semisolid (for a semi-solid in the range of 50-70 Pa S)"},
      {"measurement": "Consistency after 24 h incubation at 37° C.", "setting": "[2]; NAC 8% (160 mg), Hyase 50 μL", "value": "Semisolid (for a semi-solid in the range of 50-70 Pa S)"},
      {"measurement": "Consistency after 24 h incubation at 37° C.", "setting": "[2]; NAC 10% (200 mg), Hyase 50 μL", "value": "Semisolid (for a semi-solid in the range of 50-70 Pa S)"},
      {"measurement": "Consistency after 24 h incubation at 37° C.", "setting": "[2]; NAC 20% (400 mg), Hyase 50 μL", "value": "Fluid liquid (for a fluid liquid were in the range of 1-500 mPa S)"},
      {"measurement": "Consistency", "setting": "[2]; Table 2: Hyase 50 μL + NAC 50 μL (400 mM stock, about 3.3%) 2 h at 23° C., then HA 1% 2 mL, 24 h room temperature", "value": "Solid (for a solid the results were in the range of 80-100 Pa S and higher)"},
      {"measurement": "Consistency", "setting": "[2]; Table 3: NAC 50 μL added to HA 1% 2 mL first (0.5% NAC final), 2 h, then Hyase 50 μL, 24 h room temperature", "value": "Fluid Liquid"},
      {"measurement": "Consistency", "setting": "[2]; Table 4: NAC 400 mg dry powder (20% final), HA 2 cc of 1%, Hyase 50 μL, 4° C.", "value": "Semisolid (for a semi-solid in the range of 50-70 Pa S)"},
      {"measurement": "Consistency", "setting": "[2]; Table 4: NAC 400 mg dry powder (20% final), HA 2 cc of 1%, Hyase 50 μL, 37° C., cell wraps: Viscous liquid", "value": "Viscous"},
      {"measurement": "Consistency", "setting": "[2]; Table 5: NAC 5% (2 mL), HA 40 mg dry powder, Hyase 50 μL, room temperature, cell wraps: Solid, no crystals", "value": "Solid, no"},
      {"measurement": "Consistency", "setting": "[2]; Table 5: NAC 10% (2 mL), HA 40 mg dry powder, Hyase 50 μL, room temperature, cell wraps: Solid, no crystals", "value": "Solid, no"},
      {"measurement": "% HA degraded", "setting": "[3]; 20 μL inhibitor stock incubated 2 h with 20 μL Hyase, then HA 200 μL, room temperature 24 h", "value": 0, "unit": "%"},
      {"measurement": "inhibition of HA degradation", "setting": "[3]; NAC final concentration of the incubate 2%, Tubes 11-12", "value": "completely inhibited HA degradation"},
      {"measurement": "% of inhibition of HA degradation", "setting": "[3]; derived from Table 1", "value": 100, "unit": "%"},
      {"measurement": "% HA intact (precipitated)", "setting": "[3]; represents % of Hyase inhibition, 20 μL inhibitor, 20 μL Hyase, HA 200 μL, room temperature 24 h", "value": 100, "unit": "%"}
    ]}
  ]
}
